Data published in patent US20100056445A1, “ADIPONECTIN FOR THE TREATMENT AND DIAGNOSIS OF ALBUMINURIA” (THOMAS JEFFERSON UNIVERSITY, priority 2006, published 2010).
Entries after “also recorded” stand apart in the source; their conditions may differ.

Tests used:
podocyte monolayer = assay: Albumin permeability across differentiated podocyte monolayer (Transwell); type: cell-based, mouse; details: for Albumin permeability across podocyte monolayer: 1 mM; for Effect on the protective effect of adiponectin on podocyte permeability: ARA-A 1 mM pre-treatment prior to addition of adiponectin; for Permeability of albumin across a podocyte monolayer: adiponectin (globular or full length) 3 μg/ml, serum free, vs. control
Description: Podocyte cell culture: Conditionally immortalized mouse podocytes were kindly provided by Dr. Peter Mundel (Albert Einstein College of Medicine, Bronx, N.Y.) and were cultured as previously described (27). The cells harbor a temperature-sensitive variant of the SV40 large T antigen (tsA58) that is inducible by γ-interferon and stable at 33° C. but rapidly degraded at 37° C. (27). At 33° C., the large T antigen allows for cellular proliferation. The proliferating cells are maintained in collagen I—coated flasks in RPMI-1640 media supplemented with 10% FBS and 10 units/ml mouse recombinant γ-interferon. When the cells have reached confluence, they are passaged and allowed to differentiate at 37° C. for 8-10 days without γ-interferon in Dulbecco's modified Eagle's medium containing 5.5 mmol/l glucose and 5% FCS. For the permeability assay a modification of a previously published protocol (28) was adopted. Differentiated podocytes (0.2×10^6 podocytes/well) plated on collagen coated 24 well Transwell plates (Corning) were serum-starved ovenight when confluent. Cells were then modulated with globular adiponectin (PepROTech Inc.) with or without 1 mM adenosine 9-p-D-arabinofuranoside (ARA-A) (Sigma, St. Louis, Mo.), for 24 h. Cells were then washed twice with PBS supplemented with 1 mM MgCl2 and 1 mM CaCl2. The upper compartment was refilled with 0.25 ml RPMI 1640 alone and the lower compartment with 0.5 ml RPMI 1640 supplemented with 40 mg/ml BSA and incubated for 2 hour at 37° C. Total protein concentration in the upper compartment was determined using a Bio-Rad protein assay (Bio-Rad Laboratories, Hercules, Calif.).

Nox4 = Nox4 protein in cultured podocytes (immunoblot, confocal); type: cell-based, mouse; details: AICAR; podocytes grown in high glucose (HG)
Ad−/− mice = assay: Urinary hydrogen peroxide (Amplex red) in Ad−/− mice; type: in vivo, mouse; details: 4 month-old Ad−/− mice
Description: (§1) Interventional animal studies: The mice were treated with 25 μg of recombinant human globular domain adiponectin gAd (PepROTech, Rocky Hill, N.J.), administered 25 μg/mouse twice a day for 10 consecutive days or full-length adiponectin (fAd) was administered using an AAV vector (AAV2/8 CMV fAd virus 4×1011 GC/mouse for 10 days). A separate group of Ad−/− mice were treated with 5-aminoimidazole-4-carboxamide-1-beta-D-ribonucleoside (AICAR) with a single i.p. dose of 300 mg/kg. The control animals were given PBS alone or control AAV. 24-hour urines from each mouse were collected before treatment and on the last day of the treatment period. The urine albumin and creatinine were measured with a mouse Albuwell ELISA kit and a Creatinine Companion kit (Exocell, Philadelphia, Pa.) (26, 25). As an index of oxidant stress timed urine collections were also analyzed for hydrogen peroxide by Amplex red assay (Invitrogen/Molecular Probes, Carlsbad, Calif.) following the manufacturer's protocol. Portions of liver, muscle and kidney was snap-frozen in liquid nitrogen for RNA isolation. An additional aliquot of normal kidney was frozen in OCT for immunofluorescent staining. […]

[1] = tested on: Adiponectin KO (Ad−/−) mice; assay: Urine albumin/creatinine ratio in treated adiponectin KO mice; type: in vivo, mouse; details: Ad−/− mice at 4 months of age
Description: Adiponectin administration and animal studies: The mice were treated with 25 μg of recombinant human globular domain adiponectin (gAd; PepROTech, Rocky Hill, N.J.) subcutaneously twice daily for 10 consecutive days. The control animals were given PBS alone. 24-hour urines from each mouse were collected twice: one week before the injections and on the last day of the injections. The urine albumin and creatinine were measured with a mouse Albuwell ELISA kit and a Creatinine Companion kit (Exocell, Philadelphia, Pa.) (25,26). The mice were sacrificed five hours after the final gAd injection under anesthesia. Portions of kidney cortex were fixed in buffered formalin and embedded in paraffin. A portion of kidney cortical tissue was cut into 1 mm^3 pieces and fixed in 2.5% glutaraldehyde
as §1

NC(=O)c1ncn([C@@H]2O[C@H](CO)[C@@H](O)[C@H]2O)c1N [AICAR, 5-aminoimidazole-4-carboxamide-1-beta-D-ribonucleoside, reference compound]
Albumin permeability across podocyte monolayer (podocyte monolayer; AMPK activator AICAR): decreased | Podocyte Nox4 protein (Nox4): reduced Nox4 protein levels to a similar degree as adiponectin | Urinary levels of hydrogen peroxide (Ad−/− mice; AICAR single i.p. dose of 300 mg/kg): reduced | Urine albumin/creatinine ratio (albuminuria) ([1]; AICAR single i.p. dose of 300 mg/kg, 300 mg/kg): restored albuminuria; also recorded: significantly decreased urine albumin/creatinine to the control values seen in WT mice

Nc1ncnc2c1ncn2[C@@H]1O[C@H](CO)[C@@H](O)[C@@H]1O [ARA-A, adenosine 9-p-D-arabinofuranoside]
Albumin permeability across podocyte monolayer (podocyte monolayer; AMPK inhibitor ARA-A alone): increased permeability to albumin | Albumin permeability across podocyte monolayer (podocyte monolayer; AMPK inhibitor ARA-A alone, listed as ARA): increased | Effect on the protective effect of adiponectin on podocyte permeability (podocyte monolayer): prevented the protective effects of adiponectin on podocyte permeability; also recorded: increased permeability to albumin; also recorded: blocked protective effect of adiponectin | Effect on the protective effect of adiponectin on podocyte permeability (podocyte monolayer; listed as ARA): blocked

B1: fAd: full-length adiponectin; in mice administered using an AAV vector (AAV2/8 CMV fAd virus) (protein, listed as Homo sapiens)
chain: MLLLGAVLLLLALPGHDQETTTQGPGVLLPLPKGACTGWMAGIPGHPGHNGAPGRDGRDGTPGEKGEKGDPGLIGPKGDIGETGVPGAEGPRGFPGIQGRKGEPGEGAYVYRSAFSVGLETYVTIPNMPIRFTKIFYNQQNHYDGSTGKFHCNIPGLYYFAYHITVYMKDVKVSLFKKDKAMLFTYDQYQENNVDQASGSVLLHLEVGDQVWLQVYGEGERNGLYADNDNDSTFTGFLLYHDTN
modifications: delivered via AAV2/8 CMV vector
Permeability of albumin across a podocyte monolayer (podocyte monolayer): reduced | Permeability of albumin across a podocyte monolayer (podocyte monolayer; listed as full length adiponectin): significantly reduced | Urinary levels of hydrogen peroxide (Ad−/− mice; fAd by AAV vector, 10 days): reduced | Urine albumin/creatinine ratio (albuminuria) ([1]; fAd by AAV vector, 10 days): significantly decreased urine albumin/creatinine to the control values seen in WT mice
